The IC50 is the concentration that gives 50% inhibition.

Data on two molecules can be found in paper PMC3185571 (Viruses, 2010).

The target of test [1] is neuraminidase of A/England/412/2008 (H1N1), H275H/Y mix. Type of test: biochemical, influenza A(H1N1) virus.
Test [2] addresses neuraminidase of 2009 pandemic H1N1 H275 wildtype virus isolates (Influenza A virus, UniProt C3W5S3). Type of test: biochemical, 2009 pandemic H1N1 influenza virus.
Test [3] deals with neuraminidase of Pandemic H1N1 virus isolates (Influenza A virus, UniProt C7FH46). Format: biochemical, 2009 pandemic H1N1 influenza virus.
In test [4] the target is neuraminidase of A/Washington/10/2008, A (H1N1) Seasonal, WT (Influenza A virus, UniProt G3LYQ1). Format: biochemical. Conditions: read-out: Mean IC50 ± SD.
Test [5] has as its target neuraminidase of A/California/07/2009, H1N1 Pandemic, WT (Influenza A virus (A/California/07/2009(H1N1)), UniProt C7FH46). Type of test: biochemical, 2009 pandemic H1N1 influenza virus. Conditions: read-out: Mean IC50 ± SD.
The target in test [6] is neuraminidase of seasonal influenza A(H3N2) virus isolates (Influenza A virus, UniProt X2GK54). Format: biochemical.
In test [7] the target is neuraminidase of seasonal influenza B virus isolates (Influenza B virus, UniProt U5XBU0). Type of test: biochemical.
In test [8] the target is neuraminidase of A/Washington/01/2007, A (H3N2) Seasonal, WT (Influenza A virus, UniProt A7UPN3). The test is described as follows: biochemical.
Test [9] has as its target neuraminidase of B/Memphis/20/1996, B Seasonal, WT (Influenza B virus, UniProt C7FPS7). Format: biochemical. Conditions: read-out: Mean IC50 ± SD.
For test [10], the target named is neuraminidase of seasonal influenza A(H1N1) H275 wildtype virus isolates (Influenza A virus, UniProt A8C8J7). Format: biochemical.
Test [11] deals with neuraminidase of B/New Jersey/02/2009. Format: biochemical, influenza B virus.
Test [12] relates to neuraminidase of B/Okinawa/10/2009. Format: biochemical, influenza B virus.
In test [13] the test system is neuraminidase of seasonal influenza A(H1N1) viruses. Format: biochemical, influenza A(H1N1) virus.
Setting [14] is: read-out: IC50 Statistical Cutoff (X0.75 + 3IQR).
The mark [15] stands for this setting: read-out: IC50 X0.75 (75th Percentile).

Where two headings read alike, the source gives them in different places.

`CCC(CC)[C@H](NC(C)=O)[C@@H]1[C@H](O)[C@@H](C(=O)O)C[C@H]1N=C(N)N` [Peramivir, peramivir]: the IC50 was 0.51 nM in test [1]; 0.08 ± 0.04 nM in [2] (read-out: IC50 Mean (±SD)); 0.07 nM in [2] (read-out: IC50 Median); 0.03 to 0.35 nM in [2] (read-out: IC50 Range); 0.22 nM in [2] (setting [14]); 0.1 nM in test [2] (setting [15]). The IC50 in test [4] was 0.09 nM; in [5], 0.06 nM; in test [6] (read-out: IC50 Mean (±SD)) it was 0.17 ± 0.1 nM; in test [6] (read-out: IC50 Median) it was 0.14 nM; in test [6] (read-out: IC50 Range), 0.05 to 0.94 nM; in test [6] (setting [14]), 0.4 nM. Moreover, the IC50 is 0.19 nM in [6] (setting [15]); 0.56 nM in test [7] (read-out: IC50 Mean (±SD)); 0.56 nM in [7] (read-out: IC50 Median); 0.24 to 1.1 nM in [7] (read-out: IC50 Range); 1.37 nM in test [7] (setting [14]); 0.68 nM in test [7] (setting [15]). Further, the IC50 in test [8] (read-out: Mean IC50 ± SD) is 0.12 nM; in test [9] it was 0.31 nM; in test [10] (read-out: IC50 Mean (±SD)), 0.1 nM; in test [10] (read-out: IC50 Median) it was 0.1 nM; in test [10] (read-out: IC50 Range), 0.05 to 0.17 nM; in test [10] (setting [14]) it was 0.28 nM. Further, the 50% inhibitory concentration (IC50) in [10] (setting [15]) was 0.13 nM. For the same molecule, the “susceptibility in NI assay” value in test [3] and in test [7] was “sensitive” each time.
With `CC(=O)N[C@H]1[C@H]([C@H](O)[C@H](O)CO)OC(C(=O)O)=C[C@@H]1N=C(N)N` [Zanamivir, zanamivir], the “susceptibility in NI assay” value in test [3] is on record as “sensitive”; in [11] it was “reduced susceptibility”; in [6], “sensitive”; in [12], “reduced susceptibility”; in test [13] it was “sensitive”. In addition, the IC50 was 0.26 nM in test [5] and 0.47 nM in test [8].
